In US10617735B2, “Methods and compositions for preserving retinal ganglion cells” (Massachusetts Eye and Ear Infirmary, priority 2010, dated 2020):
Where a SMILES comes first, the peptide text is derived from it. The star is where a group is joined. Cbz = O=C(OCc1ccccc1)*; CH2F = FC*

Test system: TNF-α
Assay: TNF-α level in the retina after ON injury (quantitative real-time RT-PCR)
Type: in vivo, mouse
Settings: one day after ON injury; intravitreal Z-VAD (300 uM) and/or Nec-1 (400 uM)
Protocol: Total RNA extraction, cDNA synthesis and PCR amplification have been performed as previously reported (Kayama et al., (2010) OPHTHALMIC RES 43:79-91). A real-time PCR assay was performed with Prism 7700 Sequence Detection System (Applied Biosystems, Foster City, Calif.). The primers are shown below in Table 1.
For relative comparison of each gene, the Ct value of real-time PCR data was analyzed with the ΔΔCt method and normalized to an endogenous control ([…].
To investigate whether TNF-α is involved in RGC cell death in mice subjected to optic nerve (ON) injury (induced by physical injury to the optic nerve), TNF-α level in the retina was measured using quantitative real-time RT-PCR. As depicted in FIG. 2A, at one day after ON injury, TNF-α mRNA levels increased almost 10- to 13-fold relative to non-injured mice.

SMILES: COC(=O)CC(NC(=O)C(C)NC(=O)C(NC(=O)OCc1ccccc1)C(C)C)C(=O)CF (stereo not drawn) [Z-VAD, Benzyloxycarbonyl-Val-Ala-Asp(OMe)-fluoromethylketone] (Cbz-Val-Ala-Asp(OMe)-CH2F; configuration not given here)
- increase of TNF-α levels after ON injury: did not affect
